System: DSS-induced colitis in male C57BL/6 mice
Assay: 10-Day Dextran Sodium Sulphate (DSS)-induced colitis model in the mouse
Type: in vivo
Conditions: for additional DAI score without change in body weight (only stool consistency and rectal bleeding): oral, 10-day treatment
Text: 10-Day Dextran Sodium Sulphate (DSS)-Induced Colitis Model in the Mouse
The aim of the following study was to determine the anti-inflammatory activity of human beta defensin 2 in an acute (10-days) model of inflammatory bowel disease (colitis) induced by oral dextran sodium sulphate (DSS) administration in the mouse.
Study design: animals were divided into 5 experimental groups. Each group consisted of 10 males: Group A: Treated with Control vehicle (PBS) p.o. twice daily. Group B: Treated with methylprednisolone (1 mg/kg p.o. twice daily). Group C: Treated with hBD2 (0.05 mg/kg p.o. twice daily). Group D: Treated with hBD2 (0.5 mg/kg p.o. daily). Group E: Treated with hBD2 (5 mg/kg p.o. […]). Animal allocation to all experimental groups was done in a randomized manner. A maximum of 5 mice were housed in each cage (as per Directive 86/609/EEC). All animals were weighed on their arrival at the laboratory and prior to the administration of the test items.
The control vehicle and hBD2 were administered orally with the use of a sterile cannula in a dosing volume of 10 ml/kg body weith. The animals of all groups received 2 doses daily (at 9.00 h and 17.00 h) of the corresponding test item (test, reference or vehicle) for 10 consecutive days (experimental days 1-10).
Colitis was induced in mice by supplementing their drinking water with DSS 2% for 7 days. On Day 1 all mice were weighed and marked according to their experimental groups. The drinking bottle of each cage was filled with the DSS solution, making sure all bottle lids were mounted properly and that none were congested. On Day 3 any remaining solution in the bottles was emptied and refilled with fresh DSS solution. This procedure was repeated again on Day 5. On Day 8 any remaining solution was discarded and replaced with autoclaved water. Animals were sacrificed 2 days later on Day 10.
Daily clinical assessment of DSS-treated animals was carried out, with the calculation of a validated clinical Disease Activity Index (DAI) ranging from 0 to 4 according to the following parameters: stool consistency, presence or absence of rectal bleeding and weight loss:
Bodyweight loss was calculated as the percent difference between the original bodyweight (Day 1) and the actual bodyweight on each experimental day (2-10). The appearance of diarrhoea is defined as mucus/faecal material adherent to anal fur. Rectal bleeding is defined as diarrhoea containing visible blood/mucus or gross rectal bleeding. The maximum score of the DAI each day is 12.
On day 10, two hours after the last administration of control vehicle, hBD2 or prednisolone, the animals were killed by an overdose of anaesthetic. Their colons were removed and their length and weight measured after exclusion of the caecum. Two sections (proximal and distal) of colon were taken from each animal and preserved in neutral buffered formalin for subsequent histological analysis (haematoxylin and eosin staining) according to the following scoring system:
Description Score: No changes observed (0). Minimal scattered mucosal inflammatory cell infiltrates, with or without minimal epithelial hyperplasia (1). Mild scattered to diffuse inflammatory cell infiltrates, sometimes extending into the submucosa and associated with erosions, with minimal to mild epithelial hyperplasia and minimal to mild mucin depletion from goblet cells (2). Mild to moderate inflammatory cell infiltrates that were sometimes transmural, often associated with ulceration, with moderate epithelial hyperplasia and mucin depletion (3). Marked inflammatory cell infiltrates that were often transmural and associated with ulceration, with marked epithelial hyperplasia and mucin depletion (4). Marked transmural inflammation with severe ulceration and loss of intestinal glands (5). […]

[1] = 1 mg/kg p.o. twice daily (Group B), day 10

Molecule	histological injury induced by DSS in the distal colon [1]	histological injury induced by DSS in the proximal colon [1]	body weight (group B, from day 2 until the end of the study)	additional DAI score without change in body weight (only stool consistency and rectal bleeding)	effect on disease activity index (DAI) vs vehicle (reference item, 1 mg/kg p.o. twice daily)	severity of disease parameters (10-Day DSS-induced colitis model in the mouse)	Disease Activity Index (DAI) (hBD2 0.05 mg/kg p.o., Day 10, mean ± SEM, n=10, P < 0.05 vs vehicle)	body weight vs control group (high dose of test item, day 10 (P<0.05))	histological damage score of proximal and distal colons (orally administered, day 10)	effect on disease activity index (DAI) vs vehicle (three dose levels (0.05, 0.5, 5 mg/kg) via the oral route)	histological damage in the proximal colon (twice daily, at 3 dose levels, p.o., day 10)	histological damage in the distal colon (twice daily, intermediate and high dose levels, p.o., day 10)
C[C@H]1C[C@@H]2[C@H]([C@@H](O)C[C@@]3(C)[C@H]2CC[C@]3(O)C(=O)COC(=O)CCC(=O)O)[C@@]2(C)C=CC(=O)C=C12 [Methylprednisolone 21-hemisuccinate, reference compound]	significantly reduced	significantly reduced	significant decrease	very significant anti-inflammatory activity	significant inhibition							
Human beta defensin 2 (GIGDPVTCLKSGAICHPVFCPRRYKQIGTCGLPGTKCCKKP; mat_peptide; listed as Homo sapiens) [NZ39000]				very significant anti-inflammatory activity		significantly reduce	8 ± 0.73	significant increase	very significant reduction	significant inhibition	significant reduction	significant reduction
